# From ChEMBL document CHEMBL1201862, “PubChem BioAssay data set” (2004)
# Activity calls are given as the source filed them.
# What was measured:
# Trypsin = Trypsin (Sus scrofa, UniProt P00761); assay: porcine trypsin inhibitors, dose response, selectivity assay for Rce1 protease inhibitor project, biochemical, quenched peptide fluorescence, cherry-pick (AID 488789)
# CAAX prenyl protease 2 = CAAX prenyl protease 2 (Homo sapiens, UniProt Q9Y256); assay: human Rce1 protease inhibitors, dose response, biochemical, yeast membranes, quenched-peptide fluorescence, cherry-pick (AID 588849)
# CAAX prenyl protease 2, sequence (Q9Y256 whole entry): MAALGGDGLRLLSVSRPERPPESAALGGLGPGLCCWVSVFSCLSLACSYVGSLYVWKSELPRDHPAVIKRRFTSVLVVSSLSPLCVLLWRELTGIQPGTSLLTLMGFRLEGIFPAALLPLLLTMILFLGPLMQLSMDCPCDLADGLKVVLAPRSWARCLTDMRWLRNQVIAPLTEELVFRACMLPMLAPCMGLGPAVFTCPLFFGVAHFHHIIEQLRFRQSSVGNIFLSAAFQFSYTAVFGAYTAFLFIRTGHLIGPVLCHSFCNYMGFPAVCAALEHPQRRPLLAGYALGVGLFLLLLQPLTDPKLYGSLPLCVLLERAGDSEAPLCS
# [1] = target: UDP-galactopyranose mutase (Mycobacterium tuberculosis, UniProt P9WIQ1); assay: Inhibitors of Mycobacterium tuberculosis UDP-galactopyranose mutase (UGM) enzyme Measured in Biochemical System Using Plate Reader - 2105-02_Inhibitor_Dose_CherryPick_Activity. [Related pubchem assays (depositor defined):AID504439]
# [2] = target: T1, Voltage-gated N-type calcium channel alpha-1B subunit/Amyloid beta A4 precursor protein-binding family A member 1 (Homo sapiens, UniProt Q00975+Q02410); assay type: protein assay
# T1 sequence (Q00975 whole entry): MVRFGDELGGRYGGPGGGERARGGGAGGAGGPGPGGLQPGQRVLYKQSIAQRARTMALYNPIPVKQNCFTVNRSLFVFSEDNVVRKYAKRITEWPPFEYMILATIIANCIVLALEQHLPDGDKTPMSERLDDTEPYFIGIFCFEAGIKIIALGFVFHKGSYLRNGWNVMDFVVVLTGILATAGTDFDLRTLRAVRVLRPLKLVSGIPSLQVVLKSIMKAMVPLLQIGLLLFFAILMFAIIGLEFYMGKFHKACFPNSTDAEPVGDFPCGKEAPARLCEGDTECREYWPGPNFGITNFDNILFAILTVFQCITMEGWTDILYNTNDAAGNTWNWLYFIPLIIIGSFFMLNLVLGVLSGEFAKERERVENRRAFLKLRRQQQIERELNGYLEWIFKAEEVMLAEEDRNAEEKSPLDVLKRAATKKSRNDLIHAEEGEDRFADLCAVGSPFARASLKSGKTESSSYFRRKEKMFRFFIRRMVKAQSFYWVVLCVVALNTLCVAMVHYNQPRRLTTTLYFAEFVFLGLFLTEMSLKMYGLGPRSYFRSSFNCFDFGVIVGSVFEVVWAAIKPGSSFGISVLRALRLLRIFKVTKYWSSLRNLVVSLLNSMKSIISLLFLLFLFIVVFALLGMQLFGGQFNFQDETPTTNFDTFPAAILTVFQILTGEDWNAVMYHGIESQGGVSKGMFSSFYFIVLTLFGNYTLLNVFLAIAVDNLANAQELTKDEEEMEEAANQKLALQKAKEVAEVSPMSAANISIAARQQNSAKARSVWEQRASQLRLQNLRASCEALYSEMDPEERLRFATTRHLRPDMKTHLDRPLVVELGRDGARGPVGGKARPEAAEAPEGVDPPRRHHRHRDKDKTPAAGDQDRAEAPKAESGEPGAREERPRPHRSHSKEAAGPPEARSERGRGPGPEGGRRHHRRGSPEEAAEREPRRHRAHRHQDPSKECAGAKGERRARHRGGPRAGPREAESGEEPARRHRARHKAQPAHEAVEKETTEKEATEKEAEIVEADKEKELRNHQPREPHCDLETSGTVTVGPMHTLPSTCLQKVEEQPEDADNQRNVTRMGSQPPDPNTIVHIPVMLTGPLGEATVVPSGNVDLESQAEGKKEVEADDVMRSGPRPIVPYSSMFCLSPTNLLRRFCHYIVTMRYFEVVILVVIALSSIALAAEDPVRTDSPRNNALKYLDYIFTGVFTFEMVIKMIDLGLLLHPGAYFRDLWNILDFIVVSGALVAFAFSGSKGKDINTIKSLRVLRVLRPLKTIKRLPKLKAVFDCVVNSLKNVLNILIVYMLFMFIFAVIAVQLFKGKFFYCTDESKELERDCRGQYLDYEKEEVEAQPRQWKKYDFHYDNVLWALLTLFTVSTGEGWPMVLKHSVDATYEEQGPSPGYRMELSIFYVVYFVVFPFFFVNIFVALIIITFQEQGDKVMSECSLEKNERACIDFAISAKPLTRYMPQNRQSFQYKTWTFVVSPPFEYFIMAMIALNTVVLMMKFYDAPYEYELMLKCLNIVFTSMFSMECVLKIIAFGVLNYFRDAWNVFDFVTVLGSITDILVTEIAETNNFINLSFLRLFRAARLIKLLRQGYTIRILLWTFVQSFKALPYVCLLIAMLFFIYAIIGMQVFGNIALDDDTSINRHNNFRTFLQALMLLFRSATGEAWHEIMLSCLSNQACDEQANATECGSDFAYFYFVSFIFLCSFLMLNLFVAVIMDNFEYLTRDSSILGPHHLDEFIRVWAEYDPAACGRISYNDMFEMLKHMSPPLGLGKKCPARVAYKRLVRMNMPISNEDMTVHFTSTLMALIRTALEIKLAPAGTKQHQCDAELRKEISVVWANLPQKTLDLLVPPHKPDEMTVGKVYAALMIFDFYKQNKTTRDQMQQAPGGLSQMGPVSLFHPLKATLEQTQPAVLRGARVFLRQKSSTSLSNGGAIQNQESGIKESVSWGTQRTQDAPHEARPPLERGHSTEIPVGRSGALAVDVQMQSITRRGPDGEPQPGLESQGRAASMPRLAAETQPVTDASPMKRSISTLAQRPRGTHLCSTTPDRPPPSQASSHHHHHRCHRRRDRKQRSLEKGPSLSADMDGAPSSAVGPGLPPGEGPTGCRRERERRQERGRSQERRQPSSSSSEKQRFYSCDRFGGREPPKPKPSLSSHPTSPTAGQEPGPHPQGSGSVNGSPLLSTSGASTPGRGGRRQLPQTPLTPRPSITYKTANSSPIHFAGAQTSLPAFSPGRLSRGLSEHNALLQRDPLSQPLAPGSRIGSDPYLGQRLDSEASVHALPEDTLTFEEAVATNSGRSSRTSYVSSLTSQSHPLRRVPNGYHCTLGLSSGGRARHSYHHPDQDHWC
# T1 sequence (Q02410 whole entry): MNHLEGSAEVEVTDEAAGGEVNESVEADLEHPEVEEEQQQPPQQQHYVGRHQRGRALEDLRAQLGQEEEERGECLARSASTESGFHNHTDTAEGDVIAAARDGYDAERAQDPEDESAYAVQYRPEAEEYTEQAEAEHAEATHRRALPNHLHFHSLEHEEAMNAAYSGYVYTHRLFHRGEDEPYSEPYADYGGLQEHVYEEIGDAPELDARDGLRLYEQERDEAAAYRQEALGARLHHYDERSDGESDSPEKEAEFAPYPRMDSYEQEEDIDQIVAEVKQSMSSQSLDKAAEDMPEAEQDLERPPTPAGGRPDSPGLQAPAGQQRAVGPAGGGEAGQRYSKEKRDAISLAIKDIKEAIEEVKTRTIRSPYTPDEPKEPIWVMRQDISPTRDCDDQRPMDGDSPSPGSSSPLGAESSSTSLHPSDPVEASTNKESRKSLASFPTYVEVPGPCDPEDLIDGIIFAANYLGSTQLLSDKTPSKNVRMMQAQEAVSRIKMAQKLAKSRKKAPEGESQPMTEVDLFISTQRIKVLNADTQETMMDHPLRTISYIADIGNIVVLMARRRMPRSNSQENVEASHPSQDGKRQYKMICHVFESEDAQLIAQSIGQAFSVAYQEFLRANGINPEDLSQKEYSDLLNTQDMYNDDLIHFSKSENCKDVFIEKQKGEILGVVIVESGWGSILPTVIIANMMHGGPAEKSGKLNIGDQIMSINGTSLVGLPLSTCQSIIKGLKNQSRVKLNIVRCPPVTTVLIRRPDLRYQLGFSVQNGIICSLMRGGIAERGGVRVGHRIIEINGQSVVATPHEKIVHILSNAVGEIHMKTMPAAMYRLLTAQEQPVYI
# [3] = target: DNA dC->dU-editing enzyme APOBEC-3A (Homo sapiens, UniProt P31941); assay: APOBEC3A DNA deaminase inhibitors, dose response, biochemical (AID 504722); assay type: functional
# DNA dC->dU-editing enzyme APOBEC-3A, sequence (P31941 whole entry, the tested form may be a part): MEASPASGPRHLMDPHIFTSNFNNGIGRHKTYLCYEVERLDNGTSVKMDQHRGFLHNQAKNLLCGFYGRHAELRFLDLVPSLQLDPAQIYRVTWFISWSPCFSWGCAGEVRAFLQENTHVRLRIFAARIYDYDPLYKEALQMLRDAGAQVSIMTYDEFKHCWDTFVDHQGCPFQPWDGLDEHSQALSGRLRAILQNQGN
# [4] = target: T2, Carboxy-terminal domain RNA polymerase II polypeptide A small phosphatase 1 (Homo sapiens, UniProt Q9GZU7); assay: inhibitors of CTDSP1, concentration-response testing, biochemical assay, absorbance-based, actives from ultra-high-throughput screening (AID 540297); assay type: functional
# T2 sequence (Q9GZU7 whole entry): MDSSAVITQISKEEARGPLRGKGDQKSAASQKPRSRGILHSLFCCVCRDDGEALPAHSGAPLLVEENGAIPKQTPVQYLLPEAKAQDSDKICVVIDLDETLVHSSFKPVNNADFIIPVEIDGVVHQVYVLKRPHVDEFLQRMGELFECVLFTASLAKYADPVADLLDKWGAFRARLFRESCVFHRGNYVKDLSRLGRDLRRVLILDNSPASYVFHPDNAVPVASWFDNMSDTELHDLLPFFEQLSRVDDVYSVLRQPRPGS
# [5] = target: T3, Apoptotic protease-activating factor 1 (Homo sapiens, UniProt O14727); assay: activation of Apaf-1 mediated apoptosis – fluorescent, uHTS hits, dose response (AID 588554); assay type: functional
# T3 sequence (O14727 whole entry): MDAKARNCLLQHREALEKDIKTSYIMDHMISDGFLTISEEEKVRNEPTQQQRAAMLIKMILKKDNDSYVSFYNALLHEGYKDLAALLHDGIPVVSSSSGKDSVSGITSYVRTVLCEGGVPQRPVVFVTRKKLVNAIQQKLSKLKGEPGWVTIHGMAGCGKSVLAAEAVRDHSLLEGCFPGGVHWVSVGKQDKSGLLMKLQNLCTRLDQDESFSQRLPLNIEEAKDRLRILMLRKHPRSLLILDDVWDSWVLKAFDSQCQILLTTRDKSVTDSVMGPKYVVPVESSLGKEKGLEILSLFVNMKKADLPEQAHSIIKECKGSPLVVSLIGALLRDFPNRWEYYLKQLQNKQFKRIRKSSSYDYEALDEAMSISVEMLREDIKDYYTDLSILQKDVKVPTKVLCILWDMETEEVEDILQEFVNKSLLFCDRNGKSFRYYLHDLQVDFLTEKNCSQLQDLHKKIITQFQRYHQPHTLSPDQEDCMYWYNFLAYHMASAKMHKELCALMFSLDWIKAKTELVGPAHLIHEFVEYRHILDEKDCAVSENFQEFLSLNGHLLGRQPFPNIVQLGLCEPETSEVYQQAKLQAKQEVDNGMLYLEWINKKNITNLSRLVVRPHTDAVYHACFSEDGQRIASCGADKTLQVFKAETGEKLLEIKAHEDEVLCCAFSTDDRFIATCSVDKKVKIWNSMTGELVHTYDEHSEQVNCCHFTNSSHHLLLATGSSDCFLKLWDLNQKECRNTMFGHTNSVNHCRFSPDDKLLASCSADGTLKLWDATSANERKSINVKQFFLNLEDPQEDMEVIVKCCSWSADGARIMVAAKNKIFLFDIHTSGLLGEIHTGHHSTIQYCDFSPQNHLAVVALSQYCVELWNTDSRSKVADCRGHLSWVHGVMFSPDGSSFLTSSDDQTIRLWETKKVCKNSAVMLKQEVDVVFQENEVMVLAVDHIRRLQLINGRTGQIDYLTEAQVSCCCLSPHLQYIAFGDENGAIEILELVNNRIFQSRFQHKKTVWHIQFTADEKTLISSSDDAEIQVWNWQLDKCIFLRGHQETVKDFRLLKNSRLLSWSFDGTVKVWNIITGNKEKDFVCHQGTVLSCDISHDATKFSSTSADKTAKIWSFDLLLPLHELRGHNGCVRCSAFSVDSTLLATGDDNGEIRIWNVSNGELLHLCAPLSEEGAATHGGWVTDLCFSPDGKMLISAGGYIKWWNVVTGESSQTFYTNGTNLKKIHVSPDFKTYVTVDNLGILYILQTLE
# [6] = target: Beta-adrenergic receptor kinase 1 (Homo sapiens, UniProt P25098); assay: aptamer displacement from bead-bound GRK2 – biochemical, cherry pick 1, bead flow cytometry, dose response (AID 504500)
# [7] = target: T1, Voltage-gated N-type calcium channel alpha-1B subunit/Amyloid beta A4 precursor protein-binding family A member 1; assay type: protein assay; remark: listed apart in the source
# [8] = target: DNA dC->dU-editing enzyme APOBEC-3G (Homo sapiens, UniProt Q9HC16); assay: Dose Response confirmation of small molecule APOBEC3G DNA Deaminase Inhibitors via a fluorescence-based single-stranded DNA deaminase assay. [Related pubchem assays (depositor defined):AID493012, AID493028]; assay type: functional
# Genome polyprotein = Genome polyprotein (dengue virus type 2, UniProt P29990); assay: Dengue-2 NS5 methyltransferase inhibitors, primary screen, biochemical, confirmation dose response (AID 588689); assay type: functional
# Genome polyprotein, sequence (P29990 2492-3391 limits assumed): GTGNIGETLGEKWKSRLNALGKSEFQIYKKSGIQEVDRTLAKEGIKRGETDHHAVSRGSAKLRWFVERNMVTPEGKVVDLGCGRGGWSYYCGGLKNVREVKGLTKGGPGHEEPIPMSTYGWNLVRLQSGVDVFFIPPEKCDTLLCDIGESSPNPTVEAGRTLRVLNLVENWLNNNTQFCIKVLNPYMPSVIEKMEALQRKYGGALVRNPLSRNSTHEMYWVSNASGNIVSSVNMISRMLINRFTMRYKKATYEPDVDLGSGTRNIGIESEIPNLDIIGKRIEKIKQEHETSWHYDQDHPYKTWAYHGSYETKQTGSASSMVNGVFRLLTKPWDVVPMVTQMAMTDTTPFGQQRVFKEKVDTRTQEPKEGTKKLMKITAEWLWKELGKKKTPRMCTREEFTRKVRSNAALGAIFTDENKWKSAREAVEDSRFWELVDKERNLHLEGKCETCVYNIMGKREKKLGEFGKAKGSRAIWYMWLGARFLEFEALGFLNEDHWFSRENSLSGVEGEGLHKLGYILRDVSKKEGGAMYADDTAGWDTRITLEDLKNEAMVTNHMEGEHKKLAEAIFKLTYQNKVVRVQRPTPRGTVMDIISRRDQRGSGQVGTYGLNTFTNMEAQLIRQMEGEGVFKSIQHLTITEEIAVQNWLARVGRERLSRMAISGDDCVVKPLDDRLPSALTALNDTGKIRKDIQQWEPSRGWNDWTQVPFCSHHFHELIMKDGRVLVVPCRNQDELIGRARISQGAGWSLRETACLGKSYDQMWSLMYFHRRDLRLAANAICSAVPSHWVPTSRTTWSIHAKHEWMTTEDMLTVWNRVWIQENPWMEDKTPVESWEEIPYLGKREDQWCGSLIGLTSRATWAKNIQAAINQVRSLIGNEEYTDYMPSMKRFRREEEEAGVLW
# [9] = CFTR ΔF508 corrector activity in bronchial cells, dose response, human bronchial epithelial cells, plate reader, cherry-pick, two tests (AID 743267); assay type: functional, cell-based
# Vero = Vero cell cytotoxicity, cytotoxicity control for flavivirus capping enzyme inhibitors (AID 588742); assay type: functional; settings: Chlorocebus sabaeus
# [10] = target: T4, Tyrosyl-DNA phosphodiesterase 2 (Homo sapiens, UniProt O95551); assay: human TDP2 enzyme inhibitors, dose response, biochemical, epi absorbance, IC50 (AID 743297)
# T4 sequence (O95551 whole entry): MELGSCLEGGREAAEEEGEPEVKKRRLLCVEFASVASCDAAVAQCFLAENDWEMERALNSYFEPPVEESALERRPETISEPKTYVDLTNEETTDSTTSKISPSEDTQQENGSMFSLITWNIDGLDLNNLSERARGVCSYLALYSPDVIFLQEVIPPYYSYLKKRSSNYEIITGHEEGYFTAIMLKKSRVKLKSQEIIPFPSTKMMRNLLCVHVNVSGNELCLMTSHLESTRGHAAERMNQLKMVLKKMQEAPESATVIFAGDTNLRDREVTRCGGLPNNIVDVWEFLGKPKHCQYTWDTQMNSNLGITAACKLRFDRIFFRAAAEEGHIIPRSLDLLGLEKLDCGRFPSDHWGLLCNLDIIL
# [11] = target: Glucose-6-phosphate 1-dehydrogenase (Homo sapiens, UniProt P11413); assay: human G6PD enzyme inhibitors, dose response, selectivity assay for P. falciparum G6PD inhibitor project, biochemical, fluorescence (AID 504792); assay type: functional
# Albumin = Albumin (Bos taurus, UniProt P02769); assay: Counterscreen for inhibitors of T-cell receptor (TCR)-CD3 interaction: Fluorescence-based biochemical high throughput dose response assay to identify inhibitors of T-cell receptor (TCR)-CD3 interaction using a TAMRA-labeled BSA probe.; assay type: functional
# Candida albicans [12] = assay: growth inhibition of azole-resistant C. albicans, dose response, CaCi-8 strain, Alamar Blue, dry powder, set 2 (AID 488909); assay type: functional, organism-based
# Candida albicans [13] = assay: growth inhibition of resistant C. albicans, dose response, CaCi-8 strain, fluconazole, dry powder, set 4 (AID 488950); assay type: functional, organism-based
# HEK293 [14] = assay: SAR Analysis of small molecule inhibitors of B-cell specific antigen receptor-induced NF-kB activation in a HEK-293T cell line using a luminescence assay - Set 2. [Related pubchem assays (depositor defined):AID435022, AID435025, AID489021]; assay type: functional, cell-based; settings: Homo sapiens
# Jurkat = assay: SAR Analysis of small molecule inhibitors of […] specific antigen receptor-induced NF-kB activation in a Jurkat cell line using a luminescence assay - Set 3. [Related pubchem assays (depositor defined):AID435022, AID435025, AID465]; assay type: functional, cell-based; settings: Homo sapiens
# HEK293 [15] = assay: cytotoxicity in HEK293T NF-kB-Luc cells, SAR follow-up, cytotoxicity control for NF-kB activator project, cell-based, resazurin fluorescence (AID 493251); assay type: functional; settings: Homo sapiens
# Trypsin, sequence (P00761 whole entry): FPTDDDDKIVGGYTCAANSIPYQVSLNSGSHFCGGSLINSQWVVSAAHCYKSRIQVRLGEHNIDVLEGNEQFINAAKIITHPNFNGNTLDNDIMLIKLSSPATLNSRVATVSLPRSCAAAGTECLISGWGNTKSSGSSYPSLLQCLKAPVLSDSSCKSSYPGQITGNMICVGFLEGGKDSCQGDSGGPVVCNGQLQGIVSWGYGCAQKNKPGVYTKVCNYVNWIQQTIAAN
smiles,measurement,setting,value
Cc1ccnc(SCc2cn3c(C)cc(C)nc3n2)n1,AC50,Trypsin,20.2 µM (active)
same,AC50,CAAX prenyl protease 2,> 100 µM (inactive)
O=C1NC(c2cccs2)Nc2sc3c(c21)CCCC3 (stereo unspecified),AC50,[1],129 µM (active)
C=C(C)C(=O)Nc1cccc(C2=NOC3(C2)C[C@@H](C(N)=O)N(C(=O)CCCCC)C3)c1 (stereo partly specified),IC50,[2],> 50 µM (inactive)
same,IC50,[3],> 100 µM (inactive)
same,IC50,[4],900 nM (active)
same,EC50,[5],2.96 µM (active)
same,EC50,[6],110 nM (active)
same,IC50,[7],10.2 µM (active)
same,IC50,[8],2.82 µM (active)
O=C1C(=NCCc2cc(Br)c(O)c(Br)c2)C=C(O)c2cccnc21,IC50,Genome polyprotein,12.2 µM (active)
same,AC50,[9],3.33 µM (active)
same,CC50,Vero,2.03 µM (active)
same,IC50,[10],5.04 µM (active)
same,IC50,[11],25.2 µM (inactive)
same,IC50,Albumin,> 94.2 µM (inactive)
CCCC(=O)N1CCN(c2ccnc3cc(Cl)ccc23)CC1,AC50,Candida albicans [12],5.59 µM (active)
same,AC50,Candida albicans [13],16.9 µM (active)
CCOc1ccc(-c2nc(CSCC(=O)NC3CCCC3)c(C)o2)cc1,IC50,HEK293 [14],26.4 µM (inactive)
same,IC50,Jurkat,37.6 µM (inactive)
same,IC50,HEK293 [15],64.2 µM (inactive)
